{"source": "ChEMBL document CHEMBL1201862", "about": "“PubChem BioAssay data set” (2004)", "assay_in_all_cases": "growth of human tumour cells (NCI), 48 h", "key": {"K562": {"system": "K562"}, "DLD-1": {"system": "DLD-1"}, "OVCAR-3": {"system": "OVCAR-3"}, "SW-620": {"system": "SW-620"}, "SF-295": {"system": "SF-295"}, "LOX IMVI": {"system": "LOX IMVI"}, "SN12C": {"system": "SN12C"}, "OVCAR-8": {"system": "OVCAR-8"}, "SNB-75": {"system": "SNB-75"}, "NCI-H522": {"system": "NCI-H522"}, "Malme-3M": {"system": "Malme-3M"}, "OVCAR-5": {"system": "OVCAR-5"}, "MCF7": {"system": "MCF7"}, "HOP-18": {"system": "HOP-18"}, "KM12": {"system": "KM12"}, "NCI-H23": {"system": "NCI-H23"}, "HCC 2998": {"system": "HCC 2998"}, "NCI-H460": {"system": "NCI-H460"}, "COLO 205": {"system": "COLO 205"}, "RXF 393": {"system": "RXF 393"}, "CCRF-CEM": {"system": "CCRF-CEM"}, "MOLT-4": {"system": "MOLT-4"}, "M19-MEL": {"system": "M19-MEL"}, "UO-31": {"system": "UO-31"}, "U-251": {"system": "U-251"}, "HCT-116": {"system": "HCT-116"}, "HT-29": {"system": "HT-29"}, "HOP-92": {"system": "HOP-92"}, "DMS-273": {"system": "DMS-273"}, "HOP-62": {"system": "HOP-62"}, "SNB-78": {"system": "SNB-78"}, "IGROV-1": {"system": "IGROV-1"}, "HL-60": {"system": "HL-60"}, "SF-539": {"system": "SF-539"}, "UACC-257": {"system": "UACC-257"}, "SNB-19": {"system": "SNB-19"}, "SK-MEL-5": {"system": "SK-MEL-5"}, "SK-MEL-28": {"system": "SK-MEL-28"}, "OVCAR-4": {"system": "OVCAR-4"}, "RPMI-8226": {"system": "RPMI-8226"}, "NCI/ADR-RES": {"system": "NCI/ADR-RES"}, "A498": {"system": "A498"}, "HCT-15": {"system": "HCT-15"}, "SK-MEL-2": {"system": "SK-MEL-2"}, "SK-OV-3": {"system": "SK-OV-3"}, "KM-20L2": {"system": "KM-20L2"}, "A549": {"system": "A549"}, "XF498": {"system": "XF498"}}, "note": "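Dose response: 5 concentrations. Exposure: 48 h. Format: 96-well plates. Endpoint: linear interpolation; highest concentration if not reached. GI50 = concentration required for 50% inhibition of growth.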 Calls of active or inactive are those of the source. Cut-off read from the data, not from the text of the source: active = GI50 up to about 1.1 µM and inactive = higher.", "data": [{"smiles": "O=C(/C=C\\c1ccc(/C=C/C(=O)Nc2cccc(C3=NCCCN3)c2)cc1)Nc1cccc(C2=NCCCN2)c1", "values": [{"measurement": "GI50", "setting": "K562", "value": "> 100 µM (inactive)"}, {"measurement": "GI50", "setting": "DLD-1", "value": "> 100 µM (inactive)"}, {"measurement": "GI50", "setting": "OVCAR-3", "value": "> 100 µM (inactive)"}, {"measurement": "GI50", "setting": "SW-620", "value": "25.4 µM (inactive)"}, {"measurement": "GI50", "setting": "SF-295", "value": "> 100 µM (inactive)"}, {"measurement": "GI50", "setting": "LOX IMVI", "value": "> 100 µM (inactive)"}, {"measurement": "GI50", "setting": "SN12C", "value": "> 100 µM (inactive)"}, {"measurement": "GI50", "setting": "OVCAR-8", "value": "> 100 µM (inactive)"}, {"measurement": "GI50", "setting": "SNB-75", "value": "> 69.3 µM (inactive)"}, {"measurement": "GI50", "setting": "NCI-H522", "value": "42.8 µM (inactive)"}, {"measurement": "GI50", "setting": "Malme-3M", "value": "> 100 µM (inactive)"}, {"measurement": "GI50", "setting": "OVCAR-5", "value": "> 100 µM (inactive)"}, {"measurement": "GI50", "setting": "MCF7", "value": "16.3 µM (inactive)"}, {"measurement": "GI50", "setting": "HOP-18", "value": "> 100 µM (inactive)"}, {"measurement": "GI50", "setting": "KM12", "value": "> 100 µM (inactive)"}, {"measurement": "GI50", "setting": "NCI-H23", "value": "> 100 µM (inactive)"}, {"measurement": "GI50", "setting": "HCC 2998", "value": "69.2 µM (inactive)"}, {"measurement": "GI50", "setting": "NCI-H460", "value": "> 100 µM (inactive)"}, {"measurement": "GI50", "setting": "COLO 205", "value": "4.06 µM (inactive)"}, {"measurement": "GI50", "setting": "RXF 393", "value": "> 100 µM (inactive)"}, {"measurement": "GI50", "setting": "CCRF-CEM", "value": "> 100 µM (inactive)"}, {"measurement": "GI50", "setting": "MOLT-4", "value": "> 100 µM (inactive)"}, {"measurement": "GI50", "setting": "M19-MEL", "value": "> 100 µM (inactive)"}, {"measurement": "GI50", "setting": "UO-31", "value": "> 100 µM (inactive)"}, {"measurement": "GI50", "setting": "U-251", "value": "> 100 µM (inactive)"}, {"measurement": "GI50", "setting": "HCT-116", "value": "> 100 µM (inactive)"}, {"measurement": "GI50", "setting": "HT-29", "value": "> 100 µM (inactive)"}, {"measurement": "GI50", "setting": "HOP-92", "value": "> 100 µM (inactive)"}, {"measurement": "GI50", "setting": "DMS-273", "value": "> 100 µM (inactive)"}, {"measurement": "GI50", "setting": "HOP-62", "value": "65.8 µM (inactive)"}, {"measurement": "GI50", "setting": "SNB-78", "value": "> 100 µM (inactive)"}, {"measurement": "GI50", "setting": "IGROV-1", "value": "> 100 µM (inactive)"}, {"measurement": "GI50", "setting": "HL-60", "value": "> 100 µM (inactive)"}, {"measurement": "GI50", "setting": "SF-539", "value": "> 100 µM (inactive)"}, {"measurement": "GI50", "setting": "UACC-257", "value": "> 100 µM (inactive)"}, {"measurement": "GI50", "setting": "SNB-19", "value": "> 100 µM (inactive)"}, {"measurement": "GI50", "setting": "SK-MEL-5", "value": "30.8 µM (inactive)"}, {"measurement": "GI50", "setting": "SK-MEL-28", "value": "> 100 µM (inactive)"}, {"measurement": "GI50", "setting": "OVCAR-4", "value": "> 100 µM (inactive)"}, {"measurement": "GI50", "setting": "RPMI-8226", "value": "33.9 µM (inactive)"}, {"measurement": "GI50", "setting": "NCI/ADR-RES", "value": "> 100 µM (inactive)"}, {"measurement": "GI50", "setting": "A498", "value": "> 74.3 µM (inactive)"}, {"measurement": "GI50", "setting": "HCT-15", "value": "> 100", "unit": "µM"}, {"measurement": "GI50", "setting": "SK-MEL-2", "value": "> 62.8 µM (inactive)"}, {"measurement": "GI50", "setting": "SK-OV-3", "value": "> 100 µM (inactive)"}, {"measurement": "GI50", "setting": "KM-20L2", "value": "> 56.4 µM (inactive)"}, {"measurement": "GI50", "setting": "A549", "value": "> 100 µM (inactive)"}, {"measurement": "GI50", "setting": "XF498", "value": "< 0.01 µM (active)"}]}]}
